Assay results taken from patent publication US20240067693A1, “POLYPEPTIDES AND USES THEREOF” (MEDIMMUNE LIMITED, priority 2020, published 2024).
Numbered stars: 1 amine (or outer) side, 2 acyl side, 3 side chain; on linkers, the order of the positions; unused ones are H or OH. Bridge positions count the residues as written; N and C are the ends. Square brackets hold non-standard residues; d marks the D form. Side chains are listed from the residue outwards. Peptide text beside a SMILES is read from it. * marks the point of attachment. C18 diacid = O=C(O)CCCCCCCCCCCCCCCCC(=O)*; γGlu = O=C(O)[C@H](CCC(=O)[*:2])N[*:1]; αMeF = C[C@](N)(Cc1ccccc1)C(=O)O; Dab = NCC[C@H](N)C(=O)O; AEEA = NCCOCCOCC(=O)O

Assays:
[1] = molecular target: T1, human calcitonin receptor (hCTR) (Homo sapiens, UniProt P30988); assay: cAMP production in 1321N1 cells with stable recombinant expression of human calcitonin receptor (hCTR); type: cell-based; details: cAMP, 1321N1 cells, assay buffer with 0.1% BSA; read-out: EC50 (pM) hCTR
T1 construct: expressed in transfected cells
T1 sequence (P30988 25-474): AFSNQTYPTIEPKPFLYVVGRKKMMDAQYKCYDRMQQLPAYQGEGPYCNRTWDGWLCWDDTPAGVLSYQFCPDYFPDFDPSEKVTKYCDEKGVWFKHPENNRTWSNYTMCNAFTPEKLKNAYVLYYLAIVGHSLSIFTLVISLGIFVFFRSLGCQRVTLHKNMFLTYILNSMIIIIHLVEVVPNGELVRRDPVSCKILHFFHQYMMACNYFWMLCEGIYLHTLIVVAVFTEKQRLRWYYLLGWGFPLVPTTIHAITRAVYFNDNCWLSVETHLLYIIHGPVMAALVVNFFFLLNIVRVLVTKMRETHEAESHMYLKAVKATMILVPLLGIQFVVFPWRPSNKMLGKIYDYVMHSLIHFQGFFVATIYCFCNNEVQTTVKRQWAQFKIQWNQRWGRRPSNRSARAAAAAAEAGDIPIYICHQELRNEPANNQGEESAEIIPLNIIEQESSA
How it was run: (§1)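 Thawed cells in HBSS/0.1% BSA/25 mM HEPES pH 7.4 with 0.5 mM IBMX were incubated with peptides 30 min at room temperature; cAMP read by HTRF. EC50 from 4-parameter fit of % activation relative to maximal amylin or calcitonin effect.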

[2] = Thioflavin T fibrillation assay; type: physicochemical; details: ThT fibrillation assay; peptide 1 mg/mL in 25 mM sodium acetate buffer pH 4.0; 6 days at 37 °C with shaking; >144 h = no increase
Text: Peptide aggregation that form fibrils is an indication of physical instability. Fibril formation in solution poses a significant risk for the stability of injectable peptide drug products. Thioflavin T (ThT) fibrillation assay is a useful tool to assess the aggregation kinetics of a peptide or protein under accelerated and stressed conditions that can be used to forecast the long-term viability of a compound in solution. ThT can selectively bind amyloid fibrils and the resultant complex emits strong fluorescence signal at 482 nm when excited at 450 nm (Anal Biochem. 1989 Mar;177(2):244-9). Monitoring of the change in fluorescence signal is an established method to study the fibril forming potential of peptides and proteins. ThT (purchased from Sigma Aldrich) stock solution is prepared by dissolving the ThT powder in Milli-Q water and filtered to obtain a 0.25 mM solution. The concentration of the solution is measured at 412 nm using an extinction coefficient of 36 mM^−1cm^−1. Test peptides were dissolved at 1 mg/mL in 25 mM sodium acetate buffer pH 4.0. 100 μL aliquot of peptide solution and 5 μL aliquot of ThT solution were placed in a clear bottom black fluorescence 96-well plate. 5 replicates of each test samples were placed in zo the same row of the plate. Buffer was placed in control wells for baseline correction. All empty wells were filled with water to prevent evaporation. The plate was sealed with aluminium seal and placed in fluorescence plate reader and incubated for 6 days at 37 ° C. with intermittent orbital shaking at 500 to 750 rpm. The fluorescence intensity was measured every 30 min using excitation at 444 nm and emission at 480 nm. The fibril forming potential of the test peptides was determined by measuring the average time taken to detect an increase in baseline corrected fluorescence intensity.

[3] = molecular target: T2, human amylin receptor (calcitonin receptor co-expressed with receptor activity modifying protein, RAMP3) (hAMYR3) (Homo sapiens, UniProt O60896+P30988); assay: cAMP production in 1321N1 cells with stable recombinant expression of human amylin receptor (hAMYR3); type: cell-based; details: for Ratio (selectivity hAMYR vs hCTR, ratio of EC50 values at the two receptors): EC50 hCTR / EC50 hAMYR3; for EC50: cAMP, 1321N1 cells, assay buffer with 0.1% BSA, read-out: EC50 (pM) hAMYR3
T2 construct: expressed in transfected cells
T2 sequence (P30988 25-474): T1 sequence (P30988 25-474)
T2 sequence (O60896 24-148 partner): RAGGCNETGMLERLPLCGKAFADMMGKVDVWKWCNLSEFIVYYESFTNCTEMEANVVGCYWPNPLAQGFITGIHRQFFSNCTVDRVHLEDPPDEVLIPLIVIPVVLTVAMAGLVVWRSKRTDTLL
How it was run: as §1

Row | EC50 [1] [pM] | Time taken to detect increase in fluorescence intensity [2] [h] | Ratio (selectivity hAMYR vs hCTR, ratio of EC50 values at the two receptors) [3] | EC50 [3] [pM] | SMILES
1 | 2040 | 25 | 10 | 196 | CC[C@H](C)[C@H](NC(=O)[C@@H]1CCCN1C(=O)CNC(=O)[C@](C)(Cc1ccccc1)NC(=O)[C@H](CC(N)=O)NC(=O)[C@H](CC(N)=O)NC(=O)[C@H](CO)NC(=O)[C@H](CO)NC(=O)[C@H](Cc1c[nH]cn1)NC(=O)[C@@H](NC(=O)[C@H](CC(C)C)NC(=O)[C@H](Cc1ccccc1)NC(=O)[C@H](CC(N)=O)NC(=O)[C@H](C)NC(=O)[C@H](CC(C)C)NC(=O)[C@H](CCCNC(=N)N)NC(=O)[C@H](CCC(N)=O)NC(=O)[C@@H](NC(=O)[C@H](C)NC(=O)[C@@H]1CSSC[C@H](NC(=O)[C@@H](N)CCCCNC(=O)CC[C@H](NC(=O)CC[C@H](NC(=O)CCCCCCCCCCCCCCCCC(=O)O)C(=O)O)C(=O)O)C(=O)N[C@@H](CC(N)=O)C(=O)N[C@@H]([C@@H](C)O)C(=O)N[C@@H](C)C(=O)N[C@@H]([C@@H](C)O)C(=O)N1)[C@@H](C)O)C(C)C)C(=O)N[C@@H](CC(C)C)C(=O)N1CCC[C@H]1C(=O)N1CCC[C@H]1C(=O)N[C@H](C(=O)N[C@@H](CC(N)=O)C(=O)N[C@H](C(=O)NCC(=O)N[C@@H](CO)C(=O)N[C@@H](CC(N)=O)C(=O)N[C@H](C(=O)N[C@@H](Cc1ccc(O)cc1)C(N)=O)[C@@H](C)O)C(C)C)[C@@H](C)O [Peptide 13, K(γE-γE-C18diacid)[CNTATC]ATQRLANFLVHSSNN(αMePhe)GPILPPTNVGSNTY-amide] (H-K([γGlu-γGlu-C18 diacid])CNTATCATQRLANFLVHSSNN[αMeF]GPILPPTNVGSNTY-NH2; disulfide 2-7; N-terminus assumed)
2 | 7080 | >144 | 19 | 365 | CC[C@H](C)[C@H](NC(=O)[C@@H]1CCCN1C(=O)CNC(=O)[C@](C)(Cc1ccccc1)NC(=O)[C@H](CC(N)=O)NC(=O)[C@H](CC(N)=O)NC(=O)[C@H](CO)NC(=O)[C@H](CO)NC(=O)[C@H](Cc1c[nH]cn1)NC(=O)[C@H](CCCNC(=N)N)NC(=O)[C@H](CC(C)C)NC(=O)[C@H](Cc1ccccc1)NC(=O)[C@H](CC(N)=O)NC(=O)[C@H](C)NC(=O)[C@H](CC(C)C)NC(=O)[C@H](CCCNC(=N)N)NC(=O)[C@H](CCC(N)=O)NC(=O)[C@@H](NC(=O)[C@H](C)NC(=O)[C@@H]1CSSC[C@H](NC(=O)[C@@H](N)CCCCNC(=O)COCCOCCNC(=O)COCCOCCNC(=O)CC[C@H](NC(=O)CCCCCCCCCCCCCCCCC(=O)O)C(=O)O)C(=O)N[C@@H](CC(N)=O)C(=O)N[C@@H]([C@@H](C)O)C(=O)N[C@@H](C)C(=O)N[C@@H]([C@@H](C)O)C(=O)N1)[C@@H](C)O)C(=O)N[C@@H](CC(C)C)C(=O)N1CCC[C@H]1C(=O)N1CCC[C@H]1C(=O)N[C@H](C(=O)N[C@@H](CCC(=O)O)C(=O)N[C@H](C(=O)NCC(=O)N[C@@H](CO)C(=O)N[C@@H](CC(N)=O)C(=O)N[C@H](C(=O)N[C@@H](Cc1ccc(O)cc1)C(N)=O)[C@@H](C)O)C(C)C)[C@@H](C)O [Peptide 17, K(O2Oc-O2Oc-γE-C18diacid)[CNTATC]ATQRLANFLRHSSNN(αMePhe)GPILPPTEVGSNTY-amide] (H-K([AEEA-AEEA-γGlu-C18 diacid])CNTATCATQRLANFLRHSSNN[αMeF]GPILPPTEVGSNTY-NH2; disulfide 2-7; N-terminus assumed)
3 | 9140 | 45 | 23 | 390 | CC[C@H](C)[C@H](NC(=O)[C@@H]1CCCN1C(=O)CNC(=O)[C@H](Cc1ccccc1)NC(=O)[C@H](CC(N)=O)NC(=O)[C@H](CCN)NC(=O)[C@H](CO)NC(=O)[C@H](CO)NC(=O)[C@H](Cc1c[nH]cn1)NC(=O)[C@@H](NC(=O)[C@H](CC(C)C)NC(=O)[C@H](Cc1ccccc1)NC(=O)[C@H](CC(N)=O)NC(=O)[C@H](C)NC(=O)[C@H](CC(C)C)NC(=O)[C@H](CCCNC(=N)N)NC(=O)[C@H](CCC(N)=O)NC(=O)[C@@H](NC(=O)[C@H](C)NC(=O)[C@@H]1CSSC[C@H](NC(=O)[C@H](CCCCN)NC(=O)[C@@H](N)CCCCNC(=O)CC[C@H](NC(=O)CCCCCCCCCCCCCCCCC(=O)O)C(=O)O)C(=O)N[C@@H](CC(N)=O)C(=O)N[C@@H]([C@@H](C)O)C(=O)N[C@@H](C)C(=O)N[C@@H]([C@@H](C)O)C(=O)N1)[C@@H](C)O)C(C)C)C(=O)N[C@@H](CC(C)C)C(=O)N1CCC[C@H]1C(=O)N1CCC[C@H]1C(=O)N[C@H](C(=O)N[C@@H](CCC(=O)O)C(=O)N[C@H](C(=O)NCC(=O)N[C@@H](CO)C(=O)N[C@@H](CC(N)=O)C(=O)N[C@H](C(=O)N[C@@H](Cc1ccc(O)cc1)C(N)=O)[C@@H](C)O)C(C)C)[C@@H](C)O [Peptide 28, K(γE-C18diacid)K[CNTATC]ATQRLANFLVHSS(Dab)NFGPILPPTEVGSNTY-amide] (H-K([γGlu-C18 diacid])KCNTATCATQRLANFLVHSS[Dab]NFGPILPPTEVGSNTY-NH2; disulfide 3-8; N-terminus assumed)
4 | 15800 | >144 | 26 | 598 | CC[C@H](C)[C@H](NC(=O)[C@@H]1CCCN1C(=O)CNC(=O)[C@H](Cc1ccccc1)NC(=O)[C@H](CC(N)=O)NC(=O)[C@H](CC(N)=O)NC(=O)[C@H](CO)NC(=O)[C@H](CO)NC(=O)[C@H](Cc1c[nH]cn1)NC(=O)[C@@H](NC(=O)[C@H](CC(C)C)NC(=O)[C@H](Cc1ccccc1)NC(=O)[C@H](CCN)NC(=O)[C@H](C)NC(=O)[C@H](CC(C)C)NC(=O)[C@H](CCCNC(=N)N)NC(=O)[C@H](CCC(N)=O)NC(=O)[C@@H](NC(=O)[C@H](C)NC(=O)[C@@H]1CSSC[C@H](NC(=O)[C@H](CCCCN)NC(=O)[C@@H](N)CCCCNC(=O)CC[C@H](NC(=O)CCCCCCCCCCCCCCCCC(=O)O)C(=O)O)C(=O)N[C@@H](CC(N)=O)C(=O)N[C@@H]([C@@H](C)O)C(=O)N[C@@H](C)C(=O)N[C@@H]([C@@H](C)O)C(=O)N1)[C@@H](C)O)C(C)C)C(=O)N[C@@H](CC(C)C)C(=O)N1CCC[C@H]1C(=O)N1CCC[C@H]1C(=O)N[C@H](C(=O)N[C@@H](CC(N)=O)C(=O)N[C@H](C(=O)NCC(=O)N[C@@H](CO)C(=O)N[C@@H](CC(N)=O)C(=O)N[C@H](C(=O)N[C@@H](Cc1ccc(O)cc1)C(N)=O)[C@@H](C)O)C(C)C)[C@@H](C)O [Peptide 33] (H-K([γGlu-C18 diacid])KCNTATCATQRLA[Dab]FLVHSSNNFGPILPPTNVGSNTY-NH2; disulfide 3-8; N-terminus assumed)
